Results: ChEMBL document CHEMBL1155042, “Carbamates with differential mechanism of inhibition toward acetylcholinesterase and butyrylcholinesterase” (J Med Chem, 2008)
The source made the active and inactive calls. The calls are words filed in the database; no cut-off is given here.

Assays:
Cholinesterase [1] = biological target: T1, Cholinesterase (Homo sapiens, UniProt P06276); assay: Inhibition of human serum BchE by Ellman's assay
[2] = biological target: Acetylcholinesterase (Homo sapiens) (UniProt P22303)
Chain of Acetylcholinesterase (Homo sapiens) (P22303 whole entry): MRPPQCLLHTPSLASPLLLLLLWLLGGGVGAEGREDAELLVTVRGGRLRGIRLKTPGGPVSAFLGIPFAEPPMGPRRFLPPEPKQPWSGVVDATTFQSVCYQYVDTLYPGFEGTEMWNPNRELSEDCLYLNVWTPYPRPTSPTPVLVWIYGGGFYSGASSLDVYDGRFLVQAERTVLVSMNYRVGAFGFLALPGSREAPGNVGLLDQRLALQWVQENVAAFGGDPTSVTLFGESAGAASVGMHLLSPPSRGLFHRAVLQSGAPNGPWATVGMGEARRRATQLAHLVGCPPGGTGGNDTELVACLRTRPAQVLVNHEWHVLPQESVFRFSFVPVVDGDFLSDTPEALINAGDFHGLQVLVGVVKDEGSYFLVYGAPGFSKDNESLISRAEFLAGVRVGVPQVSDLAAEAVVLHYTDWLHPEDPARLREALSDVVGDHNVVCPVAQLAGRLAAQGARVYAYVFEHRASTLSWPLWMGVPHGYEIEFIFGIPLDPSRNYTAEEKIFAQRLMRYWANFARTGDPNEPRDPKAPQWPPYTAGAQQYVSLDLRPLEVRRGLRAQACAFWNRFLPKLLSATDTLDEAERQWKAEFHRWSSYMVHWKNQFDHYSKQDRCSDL
Description: Inhibition of human recombinant AchE by Ellman's assay

Cholinesterase [3] = biological target: T1, Cholinesterase; assay: Inhibition of human serum BchE at 73.3 uM by Ellman's assay
Cholinesterase [4] = biological target: T1, Cholinesterase; assay: Deactivation of human BchE A328Y mutant assessed as residual enzyme activity at 2.1 uM after 15 mins
Cholinesterase [5] = biological target: T1, Cholinesterase; assay: Deactivation of human BchE A328W mutant assessed as residual enzyme activity at 2.1 uM after 15 mins
Cholinesterase [6] = biological target: T1, Cholinesterase; assay: Deactivation of human wild type recombinant BchE assessed as residual enzyme activity at 2.1 uM after 15 mins
Cholinesterase [7] = biological target: T1, Cholinesterase; assay: Deactivation of human BchE A328F mutant assessed as residual enzyme activity at 2.1 uM after 5 mins
Cholinesterase [8] = biological target: T1, Cholinesterase; assay: Deactivation of human BchE A328F mutant assessed as residual enzyme activity at 2.1 uM after 15 mins
Cholinesterase [9] = biological target: T1, Cholinesterase; assay: Deactivation of human BchE F329S mutant assessed as residual enzyme activity at 2.1 uM after 5 mins
Cholinesterase [10] = biological target: T1, Cholinesterase; assay: Deactivation of human BchE A328Y mutant assessed as residual enzyme activity at 2.1 uM after 10 mins
Cholinesterase [11] = biological target: T1, Cholinesterase; assay: Deactivation of human BchE A539T mutant assessed as residual enzyme activity at 2.1 uM after 5 mins
Cholinesterase [12] = biological target: T1, Cholinesterase; assay: Deactivation of human BchE F329S mutant assessed as residual enzyme activity at 2.1 uM after 15 mins
Cholinesterase [13] = biological target: T1, Cholinesterase; assay: Deactivation of human BchE D70G mutant assessed as residual enzyme activity at 2.1 uM after 10 mins
Cholinesterase [14] = biological target: T1, Cholinesterase; assay: Deactivation of human BchE F329A mutant assessed as residual enzyme activity at 2.1 uM after 10 mins
Cholinesterase [15] = biological target: T1, Cholinesterase; assay: Deactivation of human BchE F329A mutant assessed as residual enzyme activity at 2.1 uM after 15 mins
Cholinesterase [16] = biological target: T1, Cholinesterase; assay: Deactivation of human wild type recombinant BchE assessed as residual enzyme activity at 2.1 uM after 5 mins
Cholinesterase [17] = biological target: T1, Cholinesterase; assay: Deactivation of human BchE Y332A mutant assessed as residual enzyme activity at 2.1 uM after 15 mins
Cholinesterase [18] = biological target: T1, Cholinesterase; assay: Deactivation of human BchE A328W mutant assessed as residual enzyme activity at 2.1 uM after 5 mins
Cholinesterase [19] = biological target: T1, Cholinesterase; assay: Deactivation of human BchE Y332A mutant assessed as residual enzyme activity at 2.1 uM after 5 mins
Cholinesterase [20] = biological target: T1, Cholinesterase; assay: Deactivation of human BchE F329A mutant assessed as residual enzyme activity at 2.1 uM after 5 mins
Cholinesterase [21] = biological target: T1, Cholinesterase; assay: Deactivation of human BchE F329S mutant assessed as residual enzyme activity at 2.1 uM after 10 mins
Cholinesterase [22] = biological target: T1, Cholinesterase; assay: Deactivation of human BchE A328Y mutant assessed as residual enzyme activity at 2.1 uM after 5 mins
Cholinesterase [23] = biological target: T1, Cholinesterase; assay: Deactivation of human BchE A328W mutant assessed as residual enzyme activity at 2.1 uM after 10 mins
Cholinesterase [24] = biological target: T1, Cholinesterase; assay: Deactivation of human BchE Y332A mutant assessed as residual enzyme activity at 2.1 uM after 10 mins
Cholinesterase [25] = biological target: T1, Cholinesterase; assay: Deactivation of human BchE A539T mutant assessed as residual enzyme activity at 2.1 uM after 15 mins
Cholinesterase [26] = biological target: T1, Cholinesterase; assay: Deactivation of human BchE D70G mutant assessed as residual enzyme activity at 2.1 uM after 5 mins
Cholinesterase [27] = biological target: T1, Cholinesterase; assay: Inhibition of human serum BchE at 23.6 uM by Ellman's assay
Cholinesterase [28] = biological target: T1, Cholinesterase; assay: Deactivation of human BchE D70G mutant assessed as residual enzyme activity at 2.1 uM after 15 mins
Cholinesterase [29] = biological target: T1, Cholinesterase; assay: Deactivation of human BchE A539T mutant assessed as residual enzyme activity at 2.1 uM after 10 mins
Cholinesterase [30] = biological target: T1, Cholinesterase; assay: Deactivation of human BchE A328F mutant assessed as residual enzyme activity at 2.1 uM after 10 mins
Cholinesterase [31] = biological target: T1, Cholinesterase; assay: Deactivation of human wild type recombinant BchE assessed as residual enzyme activity at 2.1 uM after 10 mins

T1 sequence (P06276 whole entry): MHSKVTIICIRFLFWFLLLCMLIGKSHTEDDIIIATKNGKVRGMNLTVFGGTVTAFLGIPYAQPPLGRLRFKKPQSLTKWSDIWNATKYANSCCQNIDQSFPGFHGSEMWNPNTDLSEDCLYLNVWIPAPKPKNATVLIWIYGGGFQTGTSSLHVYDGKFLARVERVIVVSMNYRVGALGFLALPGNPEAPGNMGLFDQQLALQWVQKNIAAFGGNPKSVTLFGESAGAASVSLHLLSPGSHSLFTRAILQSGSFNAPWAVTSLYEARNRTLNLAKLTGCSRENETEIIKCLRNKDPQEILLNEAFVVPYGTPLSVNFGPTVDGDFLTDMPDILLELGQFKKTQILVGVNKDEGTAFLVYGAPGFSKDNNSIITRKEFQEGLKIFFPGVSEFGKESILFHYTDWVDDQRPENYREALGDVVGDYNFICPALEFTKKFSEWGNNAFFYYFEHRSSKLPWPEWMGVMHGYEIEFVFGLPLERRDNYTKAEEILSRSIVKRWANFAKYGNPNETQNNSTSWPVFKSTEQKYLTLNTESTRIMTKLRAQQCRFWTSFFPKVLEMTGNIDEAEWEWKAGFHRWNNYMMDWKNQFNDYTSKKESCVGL

How did the Ki (Cholinesterase [1]) turn out when `COc1cccc(OC(=O)N2c3ccccc3Sc3ccccc32)c1` was run?
The Ki was 0.71 µM.

And the Ka [2]?
The Ka was 89.4 ×10³ /M/min.

Which Ki (Cholinesterase [1]) does the source give for `O=C(Oc1ccc(Cl)cc1)N1c2ccccc2Sc2ccccc21` here?
The Ki was 10.5 µM.

What about the Ka [2] of the same compound?
Its Ka is 7.25 ×10³ /M/min.

`COc1ccc(OC(=O)N2c3ccccc3Sc3ccccc32)cc1` was tested. Which Ki (Cholinesterase [1]) did it give?
Its Ki is 2.26 µM.

What about the Ka [2] of the same compound?
The Ka was 1.42 ×10³ /M/min.

`O=C(OCCN1CCOCC1)N1c2ccccc2Sc2ccccc21` was tested. Which Ki (Cholinesterase [1]) did it give?
Its Ki is 2.4 µM.

And the Ka [2]?
The Ka was 0.12 ×10³ /M/min.

Which results are given for `O=C(Oc1cccc(Cl)c1)N1c2ccccc2Sc2ccccc21`?
Ki (Cholinesterase [1]): 0.57 µM; Ka [2]: 3.21 ×10³ /M/min

`O=C(OCCN1CCCCC1)N1c2ccccc2Sc2ccccc21` was tested. Which Ki (Cholinesterase [1]) did it give?
Its Ki is 3.2 µM.

And the Ka [2]?
Its Ka is 3 ×10³ /M/min.

Which results are given for `COC(=O)N1c2ccccc2Sc2ccccc21`?
Ki (Cholinesterase [1]): 10.2 µM; Ka [2]: 0.426 ×10³ /M/min

Which Ki (Cholinesterase [1]) does the source give for `CCCOC(=O)N1c2ccccc2Sc2ccccc21` here?
Its Ki is 260 µM.

What about the Ka [2] of the same compound?
Its Ka is 0.219 ×10³ /M/min.

`Cc1ccc(OC(=O)N2c3ccccc3Sc3ccccc32)cc1` was tested. Which Ki (Cholinesterase [1]) did it give?
Its Ki is 2.85 µM.

And the Ka [2]?
The Ka was 92.6 ×10³ /M/min.

Which Ki (Cholinesterase [1]) does the source give for `CN(C)CCOC(=O)N1c2ccccc2Sc2ccccc21` here?
Its Ki is 2.45 µM.

And the Ka [2]?
Its Ka is 0.546 ×10³ /M/min.

Which Ki (Cholinesterase [1]) does the source give for `O=C(Oc1cccc2ccccc12)N1c2ccccc2Sc2ccccc21` here?
Its Ki is 0.036 µM.

What about the Ka [2] of the same compound?
The Ka was 1650 ×10³ /M/min.

Which results are given for `CC(C)(C)c1ccc(OC(=O)N2c3ccccc3Sc3ccccc32)cc1`?
Activity (Cholinesterase [3]): inactive; Ka [2]: 0.63 ×10³ /M/min

How did the Ki (Cholinesterase [1]) turn out when `O=C(OCCN1CCCC1)N1c2ccccc2Sc2ccccc21` was run?
The Ki was 0.65 µM.

And the Ka [2]?
The Ka was 46 ×10³ /M/min.

How did the Ki (Cholinesterase [1]) turn out when `CC(C)(C)c1ccccc1OC(=O)N1c2ccccc2Sc2ccccc21` was run?
The Ki was 0.12 µM.

What about the Ka [2] of the same compound?
Its Ka is 0.011 ×10³ /M/min.

Which Activity (Cholinesterase [4]) does the source give for `O=C(Oc1ccc(-c2ccccc2)cc1)N1c2ccccc2Sc2ccccc21` here?
The Activity was 63%.

And the Activity (Cholinesterase [5])?
Its Activity is 35%.

What about the Activity (Cholinesterase [6]) of the same compound?
The Activity was 100%.

And the Activity (Cholinesterase [7])?
Its Activity is 88%.

And the Activity (Cholinesterase [8])?
Its Activity is 59%.

And the Activity (Cholinesterase [9])?
Its Activity is 51%.

And the Activity (Cholinesterase [10])?
The Activity was 67%.

What about the Activity (Cholinesterase [11]) of the same compound?
The Activity was 99%.

What about the Activity (Cholinesterase [12]) of the same compound?
Its Activity is 11%.

What about the Activity (Cholinesterase [13]) of the same compound?
Its Activity is 90%.

What about the Activity (Cholinesterase [14]) of the same compound?
The Activity was 26%.

What about the Activity (Cholinesterase [15]) of the same compound?
Its Activity is 12%.

And the Activity (Cholinesterase [16])?
Its Activity is 100%.

What about the Activity (Cholinesterase [17]) of the same compound?
Its Activity is 85%.

And the Activity (Cholinesterase [18])?
Its Activity is 74%.

What about the Activity (Cholinesterase [19]) of the same compound?
The Activity was 58%.

What about the Ka [2] of the same compound?
Its Ka is 910 ×10³ /M/min.

And the Activity (Cholinesterase [20])?
The Activity was 46%.

And the Activity (Cholinesterase [21])?
Its Activity is 15%.

What about the Activity (Cholinesterase [22]) of the same compound?
Its Activity is 85%.

And the Activity (Cholinesterase [23])?
The Activity was 57%.

What about the Activity (Cholinesterase [24]) of the same compound?
Its Activity is 87%.

And the Activity (Cholinesterase [25])?
The Activity was 93%.

What about the Activity (Cholinesterase [26]) of the same compound?
The Activity was 99.5%.

And the Activity (Cholinesterase [27])?
The Activity was “inactive”.

What about the Activity (Cholinesterase [28]) of the same compound?
The Activity was 76%.

And the Activity (Cholinesterase [29])?
The Activity was 94%.

And the Activity (Cholinesterase [30])?
The Activity was 75%.

What about the Activity (Cholinesterase [31]) of the same compound?
Its Activity is 100%.

Which Ki (Cholinesterase [1]) does the source give for `O=C(Oc1ccc2ccccc2c1)N1c2ccccc2Sc2ccccc21` here?
The Ki was 0.12 µM.

What about the Ka [2] of the same compound?
Its Ka is 11.2 ×10³ /M/min.

Which Ki (Cholinesterase [1]) does the source give for `Cc1ccccc1OC(=O)N1c2ccccc2Sc2ccccc21` here?
Its Ki is 0.39 µM.

What about the Ka [2] of the same compound?
The Ka was 547 ×10³ /M/min.

With `CC(C)(C)OC(=O)N1c2ccccc2Sc2ccccc21` as the compound, how does the Ki (Cholinesterase [1]) read?
The Ki was 4.3 µM.

What about the Ka [2] of the same compound?
Its Ka is 0.219 ×10³ /M/min.

With `COc1ccccc1OC(=O)N1c2ccccc2Sc2ccccc21` as the compound, how does the Ki (Cholinesterase [1]) read?
The Ki was 0.34 µM.

What about the Ka [2] of the same compound?
Its Ka is 5.99 ×10³ /M/min.

How did the Ki (Cholinesterase [1]) turn out when `Cc1cccc(OC(=O)N2c3ccccc3Sc3ccccc32)c1` was run?
Its Ki is 1.69 µM.

What about the Ka [2] of the same compound?
The Ka was 7.49 ×10³ /M/min.

How did the Ki (Cholinesterase [1]) turn out when `CN(C)c1cccc(OC(=O)N2c3ccccc3Sc3ccccc32)c1` was run?
Its Ki is 1.91 µM.

What about the Ka [2] of the same compound?
The Ka was 19200 ×10³ /M/min.

`CCN(CC)CCCOC(=O)N1c2ccccc2Sc2ccccc21` was tested. Which Ki (Cholinesterase [1]) did it give?
The Ki was 0.74 µM.

What about the Ka [2] of the same compound?
Its Ka is 0.21 ×10³ /M/min.

Which Ki (Cholinesterase [1]) does the source give for `CCOC(=O)N1c2ccccc2Sc2ccccc21` here?
Its Ki is 23.4 µM.

What about the Ka [2] of the same compound?
Its Ka is 0.193 ×10³ /M/min.

What does the source list for `CC(C)OC(=O)N1c2ccccc2Sc2ccccc21`?
Ki (Cholinesterase [1]): 18.1 µM; Ka [2]: 1.8 ×10³ /M/min

Which Ki (Cholinesterase [1]) does the source give for `CCCCOC(=O)N1c2ccccc2Sc2ccccc21` here?
Its Ki is 13.4 µM.

And the Ka [2]?
The Ka was 0.135 ×10³ /M/min.

For `O=C(Oc1ccccc1Cl)N1c2ccccc2Sc2ccccc21`, which Ki (Cholinesterase [1]) is on record?
Its Ki is 45.4 µM.

What about the Ka [2] of the same compound?
The Ka was 18.7 ×10³ /M/min.

What does the source list for `O=C(OC1CCCC1)N1c2ccccc2Sc2ccccc21`?
Ki (Cholinesterase [1]): 3.19 µM; Ka [2]: 0.492 ×10³ /M/min

For `O=C(Oc1ccccc1)N1c2ccccc2Sc2ccccc21`, which Ki (Cholinesterase [1]) is on record?
The Ki was 0.57 µM.

And the Ka [2]?
The Ka was 46 ×10³ /M/min.

With `CCN(CC)CCOC(=O)N1c2ccccc2Sc2ccccc21` as the compound, how does the Ki (Cholinesterase [1]) read?
Its Ki is 0.61 µM.

And the Ka [2]?
Its Ka is 0.24 ×10³ /M/min.
